Reference: patent publication US20020132236A1, “Specific inhibitors of ribosome recycling factors (RRF)” (priority 2000, published 2002)
“Also recorded” adds a separate entry of the source.

Assays:
Swiss Webster male mice = test: Toxicity studies in mice; assay type: in vivo; details: iv, ip
Procedure: Swiss Webster male mice weighing 20-25 grams receive intraperitoneal or intravenous injections of tetra guanylic acid, dissolved in 0.9% sodium chloride, see Table 1 for dosages.
For sd-G4 to be active as a specific inhibitor of RRF sd-G4 must be non-toxic in living organisms. Dosages (20-125 mg/kg) of sd-G4 and its related tetra nucleotides are administered to mice intraperitonially, as well as intraveniously, and neither acute nor chronic toxicity is noted, i.e., no grossly observable changes in growth activity, locomotor activity, food intake, or water intake during an observation period of 25 days. Moreover, no pathological signs are noted at autopsy (Table 1). […] Thus, sd-G4 is best choice for a lead compound in the computer based rational design of the anti RRF agents.

RRF [1] = molecular target: T1, RRF (Escherichia coli, UniProt P0A805); test: RRF reaction: conversion of polysomes to monosomes (sucrose gradient); assay type: biochemical, E. coli; details: for Inhibition of the RRF reaction (conversion of polysomes to monosome): dose response, expressed as percent inhibition
Procedure: The reaction mixture (275 μl) contained 72 ng/ml RRF, 0.4 μg/ml EF-G, 363 nM GTP, 10 mM Tris-Cl, pH 7.4, 8.2 mM MgSO4, […] NH4Cl, 0.3 mM DTT, […] puromycin, 1 A260 polysome of E. coli, and an increasing concentration of sd-G4, as indicated in FIG. 1. The reaction mixture is incubated for 15 min at 30° C., loaded onto a sucrose gradient (15% to 30% in buffer J (Hirashima, A., Kaji, A., Biochemistry 11: 461-471, 1972) and centrifuged at 40,000 rpm for 75 min at 4° C. The ISCO density gradient analyzer monitored sedimentation profiles of the polyribosome. The value is expressed as a percent inhibition calculated from the area of 70S and polysome on those profiles.

[2] = tested on: MS2 RNA dependent protein synthesis; test: MS2 RNA dependent protein synthesis in S30 extract; assay type: biochemical, E. coli; details: 7 μM, 8 minute point
Procedure: The reaction mixture (30 μl) contains 12 μl S30 (Kaji, 1968), Premixture (Promega), 2.4 μg MS2 phage RNA (Boehringer Mannheim), 0.1 mM amino acids mixture minus methionine (Promega), 10.1 pmole ^35S-methionine (NEN, 0.6 Ci/μmole), 0.6 A ^260U S30 extract (Promega), and 1, 4, 7, or 10 μM sd-G4 (FIG. 3). The reaction mixture is incubated at 37° C. At various times after the onset of the reaction, hot TCA (trichloroacetic acid) insoluble counts are measured.

E. coli RRF = E. coli RRF (Escherichia coli, UniProt P0A805); test: Gel retardation assay with E. coli RRF and 32P-end-labeled sd-G4; assay type: binding; details: about 2.4 μM, competed by non-labeled sd-G4, BSA negative control
Procedure: The reaction mixture for the binding of ^32P-end-labeled sd-G4 to RRF (10 μl) contains 8 mM Tris-Cl(pH 7.6), 9.7 mM MgSO4, 81 mM NH4Cl, 1.3 mM DTT, and approximately 2.4 μM of ^32P-end-labeled sd-G4. E. coli RRF, EF-G, polysome, BSA are added as indicated in FIG. 9 and competitor non-labeled sd-G4 is added at ½, 1, 2, and 4 times the concentration of the labeled sd-G4 (FIG. 9). The mixture is incubated at 30° C. for 15 min. 5% Glycerol and one-tenth volume of 25% Ficoll containing xylane cyanol and bromphenol blue is added, and the entire reaction mixture is subjected to 4% polyacrylamide gel (29:1, acrylamide/bisacrylamide) electrophoresis at 10 V/cm with constant recirculation of TBE buffer (89 mM Tris-borate, 2.5 mM EDTA, pH 8.3). The gel is dried onto Whatman 3MM paper and subject to autoradiography.

RRF [3] = molecular target: T1, RRF; test: RRF reaction: conversion of polysomes to monosomes (sucrose gradient); assay type: biochemical, E. coli; details: 1× RRF (72 ng/ml) vs 2× RRF (144 ng/ml)
RRF [4] = molecular target: T1, RRF; test: Release of ribosome-bound deacylated tRNA by RRF; assay type: biochemical; details: 7 μM, various amounts of E. coli polysome
Procedure: The reaction mixture (550 μl) for the RRF reaction contains 0.2 nmole RRF where indicated, 0.2 nmole EF-G, 0.37 μM GTP, 275 μM puromycin, 10 μM sd-G4 where indicated, and various amounts of E. coli polysome (see FIG. 8). The mixture is incubated for 15 min. at 30° C. The released tRNA is separated from the complex with pre-washed Microcon 100 (Millipore, 330× g, 40 min). The filter is washed once by centrifugation with 550 μl of a buffer (10 mM Tris-Cl, pH 7.6, 8.2 mM MgSO4, 80 mM NH4Cl, 0.14 mM DTT) and combined with the filtrate. Separated tRNA solution is concentrated with Microcon 30 (Millipore, 14,000× g, 15 min. twice) to a total volume of 14 μl. The concentrated tRNA is charged with 0.15 μCi of ^14C-amino acids mixture (Amersham, 52 mCi/mg) in 30 μl of the reaction mixture (50 mM Tris-Cl, pH 7.8,10 mM MgAc, 6 mM β-mercaptoethanol, 3 mM ATP, 5 mM phosphoenolpyruvate, 138 μg pyruvate kinase, 33.3 μg aminoacyl tRNA synthetases). Cold (4° C.) TCA (trichloro acetic acid) insoluble radioactivity is measured to estimate the amount of tRNA released. In this experiment, the amount of tRNA released is measured by its capacity to accept an amino acid.

[5] = tested on: translation of polyuridylic acid (Poly U) into polyphenylalanine; test: Translation of polyuridylic acid (Poly U) into polyphenylalanine in S30 extract; assay type: biochemical, E. coli; details: as high as 10 μM
Procedure: The reaction mixture (30 μl) contains 12 μl S30, Premixture (Promega), 20 μM ^14C-phenylalanine (Amersham, 450 Ci/mole), 10 mM Mg acetate (MgAc), 0.08 μg/ml polyU (Sigma), 1 A260 unit of E. coli S30 extract (Promega), and 1, 4, 7, or 10 μM sd-G4 (FIG. 4). The reaction mixture is incubated at 37° C. At various periods after the onset of the reaction, hot TCA (trichloroacetic acid) insoluble counts are measured.

T1 sequence (P0A805 whole entry): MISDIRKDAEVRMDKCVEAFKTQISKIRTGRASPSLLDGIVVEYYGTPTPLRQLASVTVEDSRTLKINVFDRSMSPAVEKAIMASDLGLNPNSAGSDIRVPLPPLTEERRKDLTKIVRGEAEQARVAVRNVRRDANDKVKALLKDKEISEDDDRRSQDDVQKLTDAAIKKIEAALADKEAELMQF
E. coli RRF, sequence (P0A805 whole entry): as above

In the case of 5′ phosphorylated sd-G4 [p sd-G4], the Visual effect (Swiss Webster male mice; 20 mg-125 mg/kg) is reported as “none”.

With Tetraadenylic acid the “Inhibition of the RRF reaction (conversion of polysomes to monosome)” value (RRF [1]) was “ineffective”.

In the case of “deoxyguarylic acid [d-G4, reference compound]”, the Visual effect (Swiss Webster male mice; 125 mg/kg) is reported as “none”.

With “phosphorothioate tetradeoxyguanylic acid [sd-G4]” the “Inhibition of protein synthesis (MS2 phage RNA translation)” value [2] was 50%, the “Binding to RRF (retarded electrophoretic movement)” value (E. coli RRF) was “binds” and the “Concentration that significantly inhibited the RRF reaction” value (RRF [1]; 72 ng/ml RRF, 15 min at 30° C.) was 5 µM. For the same substance, the “Inhibition of the RRF reaction (conversion of polysomes to monosome)” value (RRF [1]) was “inhibits the RRF reaction in a dose-dependent manner; also recorded: has inhibitory activity; also recorded: effective”, the “Effect of excess RRF on inhibition of the RRF reaction” value (RRF [3]) was “reduced by addition of more RRF” and the Visual effect (Swiss Webster male mice; 20 mg-125 mg/kg) was “none”. The “Release of ribosome-bound deacylated tRNA by RRF” value (RRF [4]) was “does not inhibit release of tRNA” and the “Polyphenylalanine formation (incorporation of labeled phenylalanine)” value [5] was “does not inhibit”.

“phospo diester tetraguanylic acid [pd-G4]” was tested, and the “Inhibition of the RRF reaction (conversion of polysomes to monosome)” value (RRF [1]) was “not effective in inhibiting RRF” and the “Inhibition of the RRF reaction (conversion of polysomes to monosome)” value (RRF [1]; listed as phosphodiester oligoG) was “retains the ability to inhibit RRF to some extent”.

In the case of “riboinosinic tetraphosphate [(RIP)4, reference compound]”, the Visual effect (Swiss Webster male mice; 125 mg/kg) is reported as “none”.

tetracytidylic acid was tested, and the “Inhibition of the RRF reaction (conversion of polysomes to monosome)” value (RRF [1]) was “ineffective”.

With tetrathymidylic acid the “Inhibition of the RRF reaction (conversion of polysomes to monosome)” value (RRF [1]) was “ineffective”.
